From patent US20250170027A1, “COLLAGEN CROSS-LINKER AND USES THEREOF” (The Curators of the University of Missouri, priority 2022, published 2025)

Key:
[1] = system: Clostridium histolyticum collagenase; settings: after 1 hour incubation at 37° C.; 0.2 U/ml collagenase; EDTA 5 mM; FIG. 3
Method: The direct inactivation of collagenase by TRI was also determined using a collagenase assay kit. Assays were performed in 96-well microplates with 0.2 U/ml Clostridium histolyticum collagenase incubated with the treatment solutions for up to 24 h according to the manufacturer's instructions. The well-known collagenase inhibitor 5 mM EDTA was used as a positive control. A group without any treatment was included as a negative control. The fluorescence of kinetic of inactivation was monitored at 1, 2, 4, 16 and 24 h of incubation at 37° C. in triplicate at 490 nm/520 nm. Fluorescence at the different time points was determined by subtracting background fluorescence. The collagenase activity was expressed in arbitrary fluorescence units. Then, the activity was calculated in percentage of inhibition according to the untreated negative control (presumed 100% collagenase activity) after 4 h of incubation. Statistical analysis was performed by one-way ANOVA and Games Howell's post hoc (α=0.05).

mammalian collagen = test: Application of crosslinkers to mammalian collagen (biostability, general statement); settings: application of any one of the crosslinkers to mammalian collagen
dentin collagen = test: Biodegradation of dentin collagen by exogenous collagenase (weight loss, HYP release); type: biochemical, human; settings: crosslinker 0.6 wt % in EtOH, 60 s or 1 h treatment; 0.1% collagenase 1 h at 37° C.; FIG. 2A
Method: Following the treatment and rinse, the dentin collagen films were dried (48 h under vacuum) and then exposed to 0.1% collagenase (type I, from Clostridium histolyticum, ≥125 U/mg) degradation for 1 h at 37° C. (n=6×10 films per group). The remnant films were dried as previously described and compared the weight percent before and after collagenase digestion for weight loss analysis (WL). The digestion solution was collected and processed to quantify the amount of HYP released. This processing comprised exposure to 5% Ehrlich's reagent, which binds to HYP and produces a colored solution, the color intensity of which is proportional to the concentration of HYP. Colorimetry was performed by measuring the absorbance at 555 nm in a microplate reader, thereby calculating the HYP μg/mg of collagen during digestion. […] All data for weight loss are separately shown after […] for each sample.

L929 cells [2] = test: Effect of direct treatment on cell proliferation (MTS assay); type: cell-based; settings: treatment solutions diluted 1:1000, 1:2000, 1:4000 (v/v) in culture medium; FIG. 5
Method: (§1) The cells were seeded onto 24 and 96-well plates at a density of 2×10^4 cells/cm^2 and incubated at 37° C. in 5% CO2 and 95% relative humidity until the monolayer cells spread over the bottom of the wells.
The direct treatments were conducted on 96-well plates with replacement of original culture medium with culture medium containing different diluted treatment solutions at ratios of 1:1000, 1:2000 and 1:4000 (v/v) and a control group containing only original culture medium. Cell proliferation was assessed with the MTS assay CellTiter 96 AQueous One Solution Cell Proliferation Assay following protocol guidelines specified by the manufacturer. Absorbance was measured using a multimode microplate reader at 460/30 nm at 2 h after addition of MTS reagent. Statistical analysis was performed using a two-way ANOVA for each used concentration followed by Tukey's post hoc (α=0.05).

L929 cells [3] = type: cell-based; settings: dentin disks treated 1 min; 1 or 3 days exposure; FIGS. 6, 7
Method: as §1
Twenty-four teeth were sectioned obtaining 24-dentin disks (approximately 6-mm in diameter). The dentin disks were superficially etched using 32% phosphoric acid gel for 15 s on each side, rinsed thoroughly and placed in 100 μL of treatment solutions. After 1 min of treatment, the treated dentin disks were rinsed in sterile distilled water for 30 s. Treated dentin disks were immediately placed on a permeable polycarbonate membrane insert (6.5 mm in diameter, 3.0 μm pore size) above of cultured cells and covered with 100 μL of medium. After incubation, cell viability assay was used to stain live cells with calcein-AM and dead cells with ethidium homodimer. To distinguish overlapped cells in cell counting, Hoechst 33342 was used as a cell-permeant nuclear counterstain, following the guidelines specified by the manufacturer. Cells were imaged using a fluorescent High Content Microscope with 20× magnification. Cell counting was performed using ImageJ (NIH Image J1.8.0). The percentage of cell proliferation and dead cells were statistically compared to 1-day control using one-way ANOVA and Dunnett's test (α=0.05).

## O=C(O)CN(CCN(CC(=O)O)CC(=O)O)CC(=O)O [EDTA, ethylenediaminetetraacetic acid]
[1]
  collagenase inhibition: some collagenase inhibition

## O=C(O)c1cc(C(=O)NCCc2ccc(O)c(O)c2)cc(C(=O)NCCc2ccc(O)c(O)c2)c1 [TRI-2]
Mammalian collagen
  biostability of mammalian collagen: improves the biostability

## CCOC(=O)c1cc(C(=O)NCCc2ccc(O)c(O)c2)cc(C(=O)NCCc2ccc(O)c(O)c2)c1 [TRI-3]
Mammalian collagen
  biostability of mammalian collagen: improves the biostability

## COC(=O)C1=CO[C@@H](O)[C@@H]2C(CO)=CC[C@H]12 [GEN, genipin]
Dentin collagen
  weight % change (weight loss) before and after collagenase digestion: not faring much better

## O=C(NCCc1ccc(O)c(O)c1)c1cc(C(=O)NCCc2ccc(O)c(O)c2)cc(C(=O)NCCc2ccc(O)c(O)c2)c1 [TRI-1]
Mammalian collagen
  biostability of mammalian collagen: improves the biostability

## O=CCCCC=O [GA, glutaraldehyde]
L929 cells [2]
  cell proliferation (MTS absorbance) compared to the control sample: high cytotoxicity
L929 cells [3]
  cytotoxic effect on L929 cells: cytotoxic

## O=c1c(O)c(-c2ccc(O)c(O)c2)oc2cc(O)cc(O)c12 [QC, quercetin]
Dentin collagen
  weight % change (weight loss) before and after collagenase digestion: not faring much better
